In patent publication US10981860B2, “Caspase inhibitor and pharmaceutical composition, use and therapeutic method thereof” (Chia Tai Tianqing Pharmaceutical Group Co., Ltd., priority 2016, dated 2021):

tested on: Anti-Fas-induced Jurkat cells; assay: Anti-Fas-induced apoptosis of Jurkat cells in vitro (Caspase 3 substrate Ac-DEVD-AMC fluorescence); assay type: cell-based; conditions: Homo sapiens; Jurkat Clone E6-1, Anti-Fas 50 ng/mL, 24 hours, Ac-DEVD-AMC 10 μM

| SMILES | EC50 |
| --- | --- |
| CC(C)(C)c1ccccc1NC(=O)C(=O)N1CCCC[C@](C)(C(=O)N[C@@H](CC(=O)O)C(=O)COc2c(F)c(F)cc(F)c2F)C1 [Example 111] | 23 nM |
| CC(C)(C)c1ccccc1NC(=O)C(=O)N1CCC(F)(C(=O)N[C@@H](CC(=O)O)C(=O)COc2c(F)c(F)cc(F)c2F)CC1 [Example 21] | 97.9 nM |
| CC(C)(C)c1ccccc1NC(=O)C(=O)N1CCOC[C@@H](C(=O)N[C@@H](CC(=O)O)C(=O)COc2c(F)c(F)cc(F)c2F)C1 [Example 123] | 38.9 nM |
| CC(C)(C)c1ccccc1NC(=O)C(=O)N1C[C@@H](C(=O)N[C@@H](CC(=O)O)C(=O)COc2c(F)c(F)cc(F)c2F)Cc2ccccc21 [Example 17] | 289 nM |
| CC(C)(C)c1ccccc1NC(=O)C(=O)N1CCCO[C@H](C(=O)N[C@@H](CC(=O)O)C(=O)COc2c(F)c(F)cc(F)c2F)C1 [Example 109] | 192 nM |
| O=C(O)C[C@H](NC(=O)C1CCN(C(=O)C(=O)Nc2cc(Cl)ccc2C(F)(F)F)CC1)C(=O)COc1c(F)c(F)cc(F)c1F [Example 88] | 33.8 nM |
| CC(C)(C)c1ccccc1NC(=O)C(=O)N1CCCC[C@@H](C(=O)N[C@@H](CC(=O)O)C(=O)COc2c(F)c(F)cc(F)c2F)C1 (single isomer, unassigned) [Example 10] | 41.6 nM |
| O=C(O)C[C@H](NC(=O)[C@@H]1CCCN(C(=O)C2CCCC2)C1)C(=O)COc1c(F)c(F)cc(F)c1F [Example 26] | 12.6 nM |
| Cc1ccc(Cl)c(OC(=O)N2CCC(C(=O)N[C@@H](CC(=O)O)C(=O)COc3c(F)c(F)cc(F)c3F)CC2)c1 [Example 72] | 17.9 nM |
| CN(C(=O)C(=O)N1CCC(C(=O)N[C@@H](CC(=O)O)C(=O)COc2c(F)c(F)cc(F)c2F)CC1)c1ccccc1C(C)(C)C [Example 64] | 64.7 nM |
| Cc1c(F)cc(F)c(F)c1OCC(=O)[C@H](CC(=O)O)NC(=O)C1CCN(C(=O)c2noc3ccccc23)CC1 [Example 41] | 18.8 nM |
| O=C(O)C[C@H](NC(=O)C1CC2CCC(C1)N2C(=O)OCc1ccccc1)C(=O)COc1c(F)c(F)cc(F)c1F (stereo partly shown) [Example 14] | 275 nM |
| O=C(O)C[C@H](NC(=O)C1CCN(S(=O)(=O)c2ccccc2)CC1)C(=O)COc1c(F)c(F)cc(F)c1F [Example 81] | 959 nM |
| CC(C)(C)c1ccccc1NC(=O)C(=O)N1CCOC(C(=O)N[C@@H](CC(=O)O)C(=O)COc2c(F)c(F)cc(F)c2F)C1 (stereo partly shown) [Example 8] | 124 nM |
| O=C(O)C[C@H](NC(=O)C1CCN(C(=O)c2cccnc2)CC1)C(=O)COc1c(F)c(F)cc(F)c1F [Example 36] | 10.3 nM |
| CC(C)OC(=O)N1CCC[C@@H](C(=O)N[C@@H](CC(=O)O)C(=O)COc2c(F)c(F)cc(F)c2F)C1 [Example 30] | 14.5 nM |

| SMILES | EC50 |
| --- | --- |
| O=C(O)C[C@H](NC(=O)C1CCN(C(=O)c2nsc3ccccc23)CC1)C(=O)COc1c(F)c(F)cc(F)c1F [Example 51] | 27.2 nM |
| O=C(O)C[C@H](NC(=O)C1CCN(C(=O)C(=O)NCC2CCCC2)CC1)C(=O)COc1c(F)c(F)cc(F)c1F [Example 63] | 38 nM |
| O=C(O)C[C@H](NC(=O)C1CC2(CCN(C(=O)C3CCCC3)CC2)C1)C(=O)COc1c(F)c(F)cc(F)c1F [Example 106] | 17.5 nM |
| O=C(O)C[C@H](NC(=O)C1CCN(C(=O)c2ccccn2)CC1)C(=O)COc1c(F)c(F)cc(F)c1F [Example 35] | 25.4 nM |
| CC(C)(C)c1ccccc1NC(=O)C(=O)N1CCOC[C@H](C(=O)N[C@@H](CC(=O)O)C(=O)COc2c(F)c(F)cc(F)c2F)C1 [Example 124] | 28.7 nM |
| O=C(O)C[C@H](NC(=O)C1CCN(C(=O)c2ccno2)CC1)C(=O)COc1c(F)c(F)cc(F)c1F [Example 85] | 16.3 nM |
| Cn1c(C(=O)N2CCC(C(=O)N[C@@H](CC(=O)O)C(=O)COc3c(F)c(F)cc(F)c3F)CC2)nc2ccccc21 [Example 43] | 38.6 nM |
| O=C(O)C[C@H](NC(=O)c1ccc(NC(=O)OCc2ccccc2)cc1)C(=O)COc1c(F)c(F)cc(F)c1F [Example 23] | 215 nM |
| O=C(O)C[C@H](NC(=O)C1CCN(C(=O)OCc2ccccc2)C1)C(=O)COc1c(F)c(F)cc(F)c1F (stereo partly shown) [Example 22] | 34.2 nM |
| O=C(O)C[C@H](NC(=O)C1CCN(c2ncc3cc(F)ccc3n2)CC1)C(=O)COc1c(F)c(F)cc(F)c1F [Example 82] | 44 nM |
| O=C(O)C[C@H](NC(=O)C1CCN(C(=O)Nc2ccccc2)CC1)C(=O)COc1c(F)c(F)cc(F)c1F [Example 80] | 17.5 nM |
| CC(C)(C)c1ccccc1NC(=O)C(=O)N1C[C@H](C(=O)N[C@@H](CC(=O)O)C(=O)COc2c(F)c(F)cc(F)c2F)Cc2ccccc21 [Example 16] | 417 nM |
| Cc1ccc(C)c(CCNC(=O)C(=O)N2CCC(C(=O)N[C@@H](CC(=O)O)C(=O)COc3c(F)c(F)cc(F)c3F)CC2)c1 [Example 94] | 43.9 nM |
| O=C(O)C[C@H](NC(=O)C1CN(C(=O)OCc2ccccc2)CCO1)C(=O)COc1c(F)c(F)cc(F)c1F (stereo partly shown) [Example 24] | 49.7 nM |
| Cn1c(C(=O)N2CCC(C(=O)N[C@@H](CC(=O)OC(C)(C)C)C(=O)COc3c(F)c(F)cc(F)c3F)CC2)cc2ccccc21 [Example 44] | 39.7 nM |
| O=C(O)C[C@H](NC(=O)C1CCN(C(=O)c2ccncc2)CC1)C(=O)COc1c(F)c(F)cc(F)c1F [Example 37] | 23.9 nM |

Further molecules by falling EC50, results first:

| EC50 | SMILES |
| --- | --- |
| 698 nM | CC1(C(=O)N[C@@H](CC(=O)O)C(=O)COc2c(F)c(F)cc(F)c2F)CCN(C(=O)C(=O)Nc2ccccc2C(C)(C)C)CC1 [Example 20] |
| 557 nM | CC(C)(C)c1ccccc1NC(=O)C(=O)N1CC[C@H](C(=O)N[C@@H](CC(=O)O)C(=O)COc2c(F)c(F)cc(F)c2F)C2CCCCC21 (stereo partly shown) [Example 18] |
| 552 nM | CC(C)(C)c1ccccc1NC(=O)C(=O)N[C@H]1CC[C@H](C(=O)N[C@@H](CC(=O)O)C(=O)COc2c(F)c(F)cc(F)c2F)CC1 [Example 6] |
| 383 nM | CC(C)(C)c1ccccc1NC(=O)C(=O)N1CCCO[C@@H](C(=O)N[C@@H](CC(=O)O)C(=O)COc2c(F)c(F)cc(F)c2F)C1 [Example 110] |
| 224 nM | CC(C)(C)c1ccccc1NC(=O)C(=O)N1CC[C@@H](C(=O)N[C@@H](CC(=O)O)C(=O)COc2c(F)c(F)cc(F)c2F)C2CCCCC21 (stereo partly shown) [Example 19] |
| 165 nM | CC(C)(C)c1ccccc1NC(=O)C(=O)N1CCCC[C@@](C)(C(=O)N[C@@H](CC(=O)O)C(=O)COc2c(F)c(F)cc(F)c2F)C1 [Example 112] |
| 157 nM | CC(C)(C)c1cc(Cl)ccc1NC(=O)C(=O)N1CCC(C(=O)N[C@@H](CC(=O)O)C(=O)COc2c(F)c(F)cc(F)c2F)CC1 [Example 59] |
| 112 nM | CC(C)[C@@H]1CC[C@@H](C)C[C@H]1OC(=O)N1CCC(C(=O)N[C@@H](CC(=O)O)C(=O)COc2c(F)c(F)cc(F)c2F)CC1 [Example 97] |
| 96 nM | CC(C)[C@H]1CC[C@H](C)C[C@@H]1OC(=O)N1CCC(C(=O)N[C@@H](CC(=O)O)C(=O)COc2c(F)c(F)cc(F)c2F)CC1 [Example 77] |
| 70.7 nM | O=C(O)C[C@H](NC(=O)[C@H]1CC[C@H](NC(=O)OCc2ccccc2)CC1)C(=O)COc1c(F)c(F)cc(F)c1F [Example 25] |
| 65.5 nM | CC(C)(C)c1ccccc1NC(=O)C(=O)N1CCCC[C@H](C(=O)N[C@@H](CC(=O)O)C(=O)COc2c(F)c(F)cc(F)c2F)C1 (single isomer, unassigned) [Example 9] |
| 62 nM | O=C(O)C[C@H](NC(=O)C1CCN(C(=O)OCc2ccc(Cl)cc2Cl)CC1)C(=O)COc1c(F)c(F)cc(F)c1F [Example 91] |
| 61.3 nM | O=C(O)C[C@H](NC(=O)C1CCN(C(=O)C(=O)Nc2cc(Cl)ccc2Cl)CC1)C(=O)COc1c(F)c(F)cc(F)c1F [Example 101] |
| 57.4 nM | O=C(O)C[C@H](NC(=O)[C@@H]1CCCN(C(=O)NC2CCCC2)C1)C(=O)COc1c(F)c(F)cc(F)c1F [Example 29] |
| 52.8 nM | O=C(O)C[C@H](NC(=O)C1CCN(C(=O)OCc2cc(Cl)ccc2Cl)CC1)C(=O)COc1c(F)c(F)cc(F)c1F [Example 96] |
| 52.5 nM | CC(C)(C)c1ccccc1NC(=O)C(=O)N1CC=CC[C@@H](C(=O)N[C@@H](CC(=O)O)C(=O)COc2c(F)c(F)cc(F)c2F)C1 [Example 12] |
| 49.6 nM | O=C(O)C[C@H](NC(=O)C1CCN(C(=O)C(=O)Nc2ccc(Cl)cc2C(F)(F)F)CC1)C(=O)COc1c(F)c(F)cc(F)c1F [Example 60] |
| 35 nM | O=C(O)C[C@H](NC(=O)C1CCN(c2noc3ccccc23)CC1)C(=O)COc1c(F)c(F)cc(F)c1F [Example 84] |
| 31.5 nM | O=C(O)C[C@H](NC(=O)C1CCN(C(=O)O[C@@H]2C[C@H]3CC[C@@H]2C3)CC1)C(=O)COc1c(F)c(F)cc(F)c1F [Example 100] |
| 27.6 nM | O=C(O)C[C@H](NC(=O)CC1CN(C(=O)C2CCCC2)C1)C(=O)COc1c(F)c(F)cc(F)c1F [Example 105] |
| 27.2 nM | CC(C)(C)c1ccccc1NC(=O)C(=O)N1CC=CC[C@H](C(=O)N[C@@H](CC(=O)O)C(=O)COc2c(F)c(F)cc(F)c2F)C1 [Example 11] |
| 26 nM | O=C(O)C[C@H](NC(=O)C1CCN(C(=O)NC2CCCC2)CC1)C(=O)COc1c(F)c(F)cc(F)c1F [Example 79] |
| 25.2 nM | O=C(O)C[C@H](NC(=O)C1CCN(C(=O)c2nc3ccccc3[nH]2)CC1)C(=O)COc1c(F)c(F)cc(F)c1F [Example 42] |
| 22 nM | O=C(O)C[C@H](NC(=O)C1CCN(C(=O)c2ncccn2)CC1)C(=O)COc1c(F)c(F)cc(F)c1F [Example 38] |
| 19.8 nM | O=C(O)C[C@H](NC(=O)C1CCN(C(=O)Oc2cccc(Cl)c2Cl)CC1)C(=O)COc1c(F)c(F)cc(F)c1F [Example 103] |
| 9.37 nM | O=C(O)C[C@H](NC(=O)[C@@H]1COCCN(C(=O)c2cc(-c3ccccc3Cl)on2)C1)C(=O)COc1c(F)c(F)cc(F)c1F [Example 126] |
| 9.15 nM | O=C(O)C[C@H](NC(=O)[C@@H]1COCCN(C(=O)c2noc3ccccc23)C1)C(=O)COc1c(F)c(F)cc(F)c1F [Example 128] |
| 8.98 nM | O=C(O)C[C@H](NC(=O)C1CCN(C(=O)N2CCCC2)CC1)C(=O)COc1c(F)c(F)cc(F)c1F [Example 89] |
| 7.14 nM | O=C(O)C[C@H](NC(=O)[C@H]1COCCN(C(=O)c2noc3ccccc23)C1)C(=O)COc1c(F)c(F)cc(F)c1F [Example 127] |
